Source: patent publication US12345641B2, “Fluorescence quenching immunoassay” (IDEXX Laboratories, Inc., priority 2020, dated 2025)
One block for each compound: values may come before it.

Experiments:
α-Cholic Acid antibody = assay: Fluorescence quenching of CA-Fl with anti-cholic acid antibody in PBS (Example 41); type: binding
Description: A working solution of CA-Fl in PBS (100 nM) was prepared. The working solution was then combined with various equivalents of α-Cholic Acid antibody (1:1, v/v) (commercially available from Fitzgerald Industries of the Netherlands). The fluorescence was measured as a function of the ratio of antibody (Ab) to CA-Fl. The results are depicted in FIG. 33. […] The higher the ratio of antibody to CA-Fl tracer, the greater the amount of quenching.

anti-SDMA antibody = assay: SDMA dose response with SDMA tracer/SDMA antibody solution (Example 34); type: binding; conditions: SDMA 0 to 100 μg/dL added to SDMA-DFF, SDMA-DCF or SDMA-Fl tracer/antibody solution
Description: Solutions of various SDMA tracers (SDMA-Fl, SDMA-DFF, and SDMA-DCF) in PBS (with 0.1% Tween) were prepared at a concentrations 400 nM. Solutions of anti-SDMA antibody or anti-SDMA antibody conjugated to BHQ10 (4 eq.) in PBS were prepared at concentrations of 400 and 800 nM, respectively.
SDMA standard solutions were prepared by serially diluting SDMA in PBS (with 0.1% Tween) to provide a final SDMA concentration of 100, 50, 25, 12,5, 6.26, 0 μg/dL.
50 μl of each SDMA standard solution was added to the well of a 96-well UV transparent plate. 50 μl of the SDMA tracer/SDMA antibody solution was then added to each well, the resulting solution mixed well by shaking, and incubated at room temperature for 30 min.

anti-T4 antibody = assay: Maximum percentage fluorescence quenching of T2-F, T3-F, T4-F by anti-T4 antibody with and without quencher label (Example 27 table); type: binding
Description: In another experiment, tracer T2-F, T3-F, or T4-F was dissolved in DMSO to provide a DMSO solution at a tracer concentration of 1 mM. The DMSO solution was then diluted with phosphate buffered saline (“PBS”) to provide a stock solution of each tracer at a concentration of 10 μM. Monoclonal anti-T4-Mab or anti-T4-Mab conjugated to a quencher (Cy3-Ab, IRdyeQC1-Ab, Cy5-Ab, BHQ1-Ab) were serially diluted in PBS to provide solutions having an Anti-T4-Mab or anti-T4-Mab conjugated to quencher at concentration ranging from 0 to 2 μM. In a 96 well black assay plate containing the serially diluted Anti-T4-Mab or anti-T4-Mab conjugated to quencher (95 μL) was added the tracer T2-F, T3-F, or T4-F solution (5 μL), mixed well, and incubated for 30 min and the fluorescence intensities then recorded at an excitation wavelength of 485 nm and an emission wavelength of 520 nm. The results of maximum percentage fluorescence quenching for different tracers and quencher-modified antibodies are provided in the following Table: […]

anti-T4-Mab [1] = assay: Fluorescence of T3-F and anti-T4-Mab after lyophilization (Example 22); conditions: T3-F and/or anti-T4-Mab lyophilized to dryness, reconstituted in PBS or charcoal treated horse serum
Description: T3-F (1.7 mg) was dissolved in 0.85 ml DMSO to provide a stock solution (2 mM). The T3-F stock solution was then diluted in PBS to provide a 1 μM working solution that was separated into two vials (1 mL each). To the first vial was added PBS (9 mL) and to the second vial was added PBS (8.9 mL) plus anti-T4 Mab (15 μM, 0.1 mL). The vials were mixed well and incubated for 30 min at room temperature. The fluorescence intensities for each solution (200 μL) was determined. Aliquots of each solution (200 μL) were then placed into wells of a 96 well black assay plate and lyophilized to dryness. To the dried residues was added 200 μL PBS, horse serum that had been treated with charcoal (i.e., the serum was “charcoal stripped” by dialyzing the serum in PBS buffer containing charcoal for at least three buffer changes to remove small molecules from the serum), or horse serum that had been treated with charcoal containing T4 (10 μg/dL) and the plate incubated for 30 min at room temperature. Fluorescence intensities were then recorded again.

anti-T4-Mab [2] = assay: Fluorescence of T3 tracers and anti-T4-Mab in the presence of T4 (Example 20); type: binding
Description: Similar solutions were prepared and the fluorescence measured except that the T3-F was replaced with T3-5-F, T3-E-F and T3-FITC.

[3] = system: Polyclonal anti-melamine antibody (Anti-Mel-Ab); assay: Fluorescence of mixtures of melamine fluorescent tracers and anti-melamine antibody (Example 15); type: binding; conditions: tracer 30 nM, Anti-Mel-Ab 0 to 300 nM, PBS, ex 490 nm/em 520 nm
Description: Various substituted fluorescent tracers wherein melamine is conjugated to fluorescein were dissolved in DMSO (1 mM) and diluted in phosphate buffered saline (PBS) (pH=7.3) to provide a melamine tracer solution (1.2 μM). The following melamine tracers were used:
Polyclonal anti-melamine antibody (Anti-Mel-Ab, 4.65 mg/ml, commercially available from Meridian Life Sciences Inc. (Biodesign) of Memphis, TN) was diluted in PBS and serially diluted to provide Anti-Mel-Ab solutions having Anti-Mel-Ab concentrations ranging from 0 to 300 nM. The melamine tracer solutions (5 μL) were mixed with each Anti-Mel-Ab solution (195 μl) in a 96 well black assay plate with non-binding surface (commercially available from Corning Inc. of Corning, NY) to provide solutions having different molar ratios of the Anti-Mel-Ab to the melamine tracer. The concentration of the melamine tracer was 30 nM. The plate was gently shaken for 30 min at room temperature. The fluorescence intensities of each solution was then measured using a fluorescence plate reader (Synergy 4 Microplate Reader, commercially available from BioTek Instruments, Inc. of Winooski, VT) using an excitation wavelength of 490 nm and reading the emission at 520 nm.
Unless otherwise indicated, an excitation wavelength of 490 nm and reading the emission at 520 nm were used throughout the examples. […]

Anti-Mel-Ab = assay: Fluorescence of Mel-F and Anti-Mel-Ab in PBS, serum and diluted serum with and without melamine (Example 17); type: binding; conditions: each solution: PBS, canine serum, serum diluted 1 in 10
Description: To a solution of Mel-F in PBS (1 μM, 6 μL) and to a mixture of Mel-F in PBS (1 μM, 6 μL) and Anti-Mel-Ab (1 μM, 6 μL) in the absence of and in the presence of melamine (2 μM, 6 μL) was added PBS, serum, or diluted serum (i.e., serum diluted 1 in 10 with PBS) to provide a final volume of 200 μL.

streptavidin = streptavidin (Streptomyces avidinii, UniProt P22629); assay: Fluorescence of Biotin-F or Biotin-ED in the presence of streptavidin (Example 19); type: binding; conditions: saturation point, 1:1 molar ratio streptavidin to tracer
Description: Biotin-F or Biotin-ED (commercially available from Thermo Scientific of Waltham, MA) was dissolved in DMSO to provide a DMSO solution (8.5 μM). The structure of biotin ED is
The DMSO solution was then diluted with PBS to provide a solution having a Biotin-F or Biotin-ED concentration of 100 nM. 20 μL aliquots of the resulting Biotin-F or Biotin-ED solution in PBS was then added to the wells of a 96 well black assay plate. Solutions of streptavidin in PBS having a streptavidin concentration ranging from 0 to 100 nM were prepared and added (180 μL) to the Biotin-F or Biotin-ED solution in the plate. The plate was incubated for 30 min at room temperature and the fluorescence intensities then recorded.

[4] = system: anti-cefotaxime polyclonal antibody; assay: Fluorescence of CEF-F with anti-cefotaxime antibody (Example 25); type: binding; conditions: tracer and antibody 200 nM
Description: Beta lactam antibiotics conjugated to fluorescein (i.e., AMO-FITC, AMO-F, AMP-F, and CEF-F) in PBS (400 nM, 100 μL) were mixed with either anti-penicillin or anti-cefotaxime polyclonal antibody (400 nM, 100 μL, commercially available from Novus Biologicals, LLC of Centennial, CO) in the absence of and in the presence of free beta-lactam antibiotic (ampicillin (400 nM) was added to AMP-F and cefotaxime (400 nM) was added to CEF-F) in a 96 well black assay plate. […] The solutions were incubated at room temperature for 5 min and the fluorescence intensity measured.

α-cortisol antibodies = assay: Fluorescence quenching of cortisol-4-Fl with cortisol antibody (Example 28); type: binding
Description: The cortisol-4-FL was combined with various equivalents of various a-cortisol antibodies commercially available from HyTest (of Turku, Finland), Abcam (of Cambridge, United Kingdom), and Bio-Connect BV (Fitzgerald Industries) (of the Netherlands). The fluorescence was measured as a function of the ratio of antibody (Ab) to cortisol-4-FL. The results are depicted in FIG. 21.

SMILES: C[C@H](CCC(=O)NCc1c(O)ccc2c(-c3ccccc3C(=O)O)c3ccc(=O)cc-3oc12)[C@H]1CC[C@H]2[C@@H]3[C@H](O)C[C@@H]4C[C@H](O)CC[C@]4(C)[C@H]3C[C@H](O)[C@]12C [CA-Fl, Cholic Acid-Fluorescein Conjugate]
fluorescence quenching on complex formation with α-Cholic Acid antibody (α-Cholic Acid antibody): quenched

SMILES: C/N=C(\NC)NCCC[C@H](N)C(=O)O [SDMA, symmetrical dimethylarginine]
fluorescence intensity as a function of SDMA concentration (anti-SDMA antibody): a dose response is observed

assay performance after lyophilization of reagents (anti-T4-Mab [1]): effective
SMILES: O=C(O)c1ccccc1-c1c2ccc(=O)cc-2oc2c(CNC(Cc3cc(I)c(Oc4ccc(O)c(I)c4)c(I)c3)C(=O)O)c(O)ccc12 (stereo not shown) [T3-F]
Percentage of fluorescence quenching, BHQ1-Ab (anti-T4 antibody; anti-T4-Mab conjugated to BHQ1): 30% | Percentage of fluorescence quenching, Cy5-Ab (anti-T4 antibody; anti-T4-Mab conjugated to Cy5): 40% | Percentage of fluorescence quenching, Ab (anti-T4 antibody; anti-T4-Mab without quencher): 30% | fluorescence quenching by anti-T4-Mab (anti-T4-Mab [2]; PBS, tracer and antibody equimolar): quenched | time to stable fluorescence signal (anti-T4-Mab [2]; quenching by anti-T4-Mab and recovery after addition of T4): ≤ 10 min

SMILES: Nc1nc(N)nc(NCc2c(O)ccc3c(-c4ccccc4C(=O)O)c4ccc(=O)cc-4oc23)n1 [Mel-F, Melamine-Fluorescein]
degree of fluorescence quenching compared to the other melamine tracers [3]: highest degree of quenching | fluorescence of Mel-F after quenching by Anti-Mel-Ab relative to original value (Anti-Mel-Ab): about one-half of the original value

SMILES: O=C(CCCCC1SCC2NC(=O)NC21)NCc1c(O)ccc2c(-c3ccccc3C(=O)O)c3ccc(=O)cc-3oc12 (stereo not shown) [Biotin-F, Biotin-Fluorescein]
quenching efficiency (streptavidin): 70%

SMILES: CO/N=C(\C(=O)NC1C(=O)N2C(C(=O)NCc3c(O)ccc4c(-c5ccccc5C(=O)O)c5ccc(=O)cc-5oc34)=C(COC(C)=O)CSC12)c1csc(N)n1 (stereo not shown) [CEF-F, Cefotaxime-Fluorescein]
fluorescence quenching by anti-cefotaxime antibody [4]: quenched

SMILES: C[C@]12CCC(=NOCC(=O)NCc3c(O)ccc4c(-c5ccccc5C(=O)O)c5ccc(=O)cc-5oc34)C=C1CCC1C2[C@@H](O)C[C@@]2(C)C1CC[C@]2(O)C(=O)CO (stereo in doubt) [Cortisol-4-Fl]
fluorescence quenching on complex formation with cortisol antibody (α-cortisol antibodies): quenched
